From paper PMC5969224, “Lysine‐241 Has a Role in Coupling 2OG Turnover with Substrate Oxidation During KDM4‐Catalysed Histone Demethylation” (Chembiochem, 2018)
Changes are numbered by the printed parent chain. Entries after “also recorded” stand apart in the source; their conditions may differ. Each block holds one compound with its values, some of them ahead of it. Square brackets hold non-standard residues; d marks the D form. Ends that are not written are not given here. Lys(Me3) = C[N+](C)(C)CCCC[C@H](N)C(=O)O

Key:
[1] = molecular target: T1, K241A KDM4A (Homo sapiens, UniProt O75164, K241A); assay: 1H NMR succinate formation in presence of H3 eight-residue peptide, K241A KDM4A; assay type: biochemical; conditions: K241A KDM4A 20.5 μM; peptide 300 µM; 2OG 2 mM; pH 7.5
T1 construct: two recombinant variants of KDM4A (residues 1–359) in Escherichia coli BL21(DE3) cells; His6 (N); made in house; host or cells: Escherichia coli BL21(DE3)
T1 sequence (O75164 1-359 K241A): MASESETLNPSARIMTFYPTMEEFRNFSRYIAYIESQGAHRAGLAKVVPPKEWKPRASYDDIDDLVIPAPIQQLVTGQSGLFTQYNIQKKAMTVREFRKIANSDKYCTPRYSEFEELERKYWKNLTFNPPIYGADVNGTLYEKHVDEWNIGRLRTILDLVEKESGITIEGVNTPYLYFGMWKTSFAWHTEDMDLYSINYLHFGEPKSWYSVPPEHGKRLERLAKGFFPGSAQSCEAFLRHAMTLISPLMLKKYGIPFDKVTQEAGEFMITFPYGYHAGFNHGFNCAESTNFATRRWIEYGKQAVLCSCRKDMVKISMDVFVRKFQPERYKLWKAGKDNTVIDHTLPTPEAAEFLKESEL
Experimental: (§1) Samples containing either WT or K241A (20.5 μM), an excess of 2OG (2 mM), ascorbate (1 mM), and ferrous iron (100 μM) in ammonium formate buffer (50 mM, pH 7.5) were subjected to ^1H NMR analysis at 1.5 min intervals over a 30‐min reaction. […] Experiments were then conducted in the presence of a histone H3 eight‐residue fragment peptide containing N ^ϵ‐trimethyllysine at position 9 (H3K9me3, sequence: ARKme3STGGK).
(§2) 1H NMR activity and inhibition assays: 20.5 µM KDM4A WT or KDM4A K241A was
(§3) mixed with 2 mM 2OG, 1 mM sodium L-ascorbate, and 100 µM ferrous iron (source
(§4) (NH4)2FeSO4.6H2O), in 50 mM ammonium formate buffer pH 7.5 10 % v/v D2O in an Ep-
(§5) pendorf tube, before being immediately transferred to an NMR tube and subjected to 1H NMR
(§6) analysis (700 MHz). For samples containing peptide substrate (sequence: ARKme3STGGK),
(§7) the peptide concentration was 300 µM. For inhibition assays, samples contained 100 µM in-
(§8) hibitor (JIB-04 or NOG) and the spectra were acquired after 35 min. Note: residual protein
(§9) buffer was also present. NMR analyses were carried out on a Bruker AVIII 700 spectrometer
(§10) equipped with an inverse TCI 1H/13C/15N cryoprobe and running TOPSPIN 3.2 software. The
(§11) deuterium signal was used as an internal lock signal and 1H chemical shifts are reported in
(§12) ppm relative to the solvent HDO resonance (δH 4.7 ppm).

[2] = molecular target: T2, WT KDM4A (Homo sapiens, UniProt O75164); assay: 1H NMR succinate formation in presence of H3 eight-residue peptide, WT KDM4A; assay type: biochemical; parameters: two recombinant variants of KDM4A (residues 1–359) in Escherichia coli BL21(DE3) cells; His6 (N); made in house; host or cells: Escherichia coli BL21(DE3); conditions: peptide 300 µM
T2 sequence (O75164 1-359): T1 sequence (O75164 1-359 K241A) with A241K
Experimental: as §1, §2, §3, §4, §5, §6, §7, §8, §9, §10, §11, §12

[3] = molecular target: T1, K241A KDM4A; assay: 1H NMR substrate-uncoupled turnover of 2OG to succinate, K241A KDM4A; assay type: biochemical
Experimental: as §1, §2, §3, §4, §5, §6, §7, §8, §9, §10, §11, §12

[4] = molecular target: T2, WT KDM4A; conditions: ref 12b; cited from earlier work
Experimental: Studies were then carried out to evaluate the ability of the two KDM4A proteins to catalyse the demethylation of a histone peptide substrate.

[5] = molecular target: T2, WT KDM4A; assay: 1H NMR substrate-uncoupled turnover of 2OG to succinate, WT KDM4A; assay type: biochemical; parameters: two recombinant variants of KDM4A (residues 1–359) in Escherichia coli BL21(DE3) cells; His6 (N); made in house; host or cells: Escherichia coli BL21(DE3); conditions: WT 20.5 μM, 2OG 2 mM, ascorbate 1 mM, Fe(II) 100 μM, 50 mM ammonium formate pH 7.5, no peptide; 1H NMR 700 MHz, 1.5 min intervals over 30 min
Experimental: Samples containing either WT or K241A (20.5 μM), an excess of 2OG (2 mM), ascorbate (1 mM), and ferrous iron (100 μM) in ammonium formate buffer (50 mM, pH 7.5) were subjected to ^1H NMR analysis at 1.5 min intervals over a 30‐min reaction.
as §2, §3, §4, §5, §9, §10, §11
ppm relative to the solvent HDO resonance (δH 4.7 ppm). The solvent signal was reduced by

[6] = molecular target: T1, K241A KDM4A; assay: MALDI-TOF MS demethylation assay, K241A KDM4A; assay type: biochemical; conditions: K241A KDM4A 1 μM, peptide 100 μM, 2OG 100 μM, ascorbate 100 μM, Fe(II) 10 μM, 50 mM HEPES pH 7.5, 40 min, 37 °C
Experimental: Initially, we produced two recombinant variants of KDM4A (residues 1–359) in Escherichia coli BL21(DE3) cells; a truncated wild‐type sequence (KDM4A WT), or a variant with an alanine in place of Lys241 (K241A KDM4A). Studies were then carried out to evaluate the ability of the two KDM4A proteins to catalyse the demethylation of a histone peptide substrate.
MALDI-TOF MS activity assays: 1 µM WT KDM4A or KDM4A K241A was incubated
with 100 µM disodium 2-oxoglutarate (2OG), 100 µM sodium L-ascorbate, 10 µM ferrous iron
(source (NH4)2FeSO4.6H2O) and 100 µM of 15-residue H3 fragment peptide containing the
requisite trimethyllysine mark (Table S1) in 50 mM HEPES buffer pH 7.5 for 40 min at 37 °C.
Assays were quenched with an equal vol-
ume of methanol, and the extent of the reaction determined using MALDI-TOF mass spec-
trometry (MS). Data were analysed using MASSLYNX 4.0 (Waters).

[7] = molecular target: T1, K241A KDM4A; assay: 1H NMR inhibition assay of uncoupled 2OG turnover, K241A KDM4A; assay type: biochemical; conditions: K241A KDM4A 20.5 μM; inhibitor 100 μM; 2OG 2 mM; spectra after 35 min; pH 7.5
Experimental: as §1, §2, §3, §4, §5, §6, §7, §8, §9, §10, §11, §12

[8] = molecular target: T1, K241A KDM4A; assay: 1H CPMG NMR binding assay, K241A KDM4A; conditions: for binding to K241A versus WT KDM4A: CPMG NMR, K241A compared with WT
Experimental: as §1
(§13) NMR analyses were carried out on a Bruker AVIII 700 spectrometer
as §10, §11, §12
(§14) 1H CPMG NMR binding assays: Typical experimental parameters for Carr-Purcell-Mei-
(§15) boom-Gill (CPMG) NMR spectroscopy were as follows: total echo time, 40 ms; relaxation
(§16) delay, 2 s; and number of transients, 264. The PROJECT-CPMG sequence was applied
(§17) (90°x−[τ−180°y−τ−90°y−τ−180°y−τ]n−acq).[4] Water suppression was achieved by presatura-
(§18) tion. Protein (KDM4A WT or KDM4A K241A) was titrated into an assay mixture of 40 µM

[9] = molecular target: T1, K241A KDM4A; conditions: mixed-mode inhibition of K241A; cited from earlier work
Source text: The overall MS, NMR spectroscopy and fluorescence polarisation studies imply that K241 has a role in KDM4A catalysis. […] Succinate formation by the K241A variant is stimulated by a histone fragment peptide, and a fluorescently labelled histone peptide bind ...

[10] = molecular target: T2, WT KDM4A; assay: 1H NMR inhibition assay of uncoupled 2OG turnover, WT KDM4A; assay type: biochemical; parameters: two recombinant variants of KDM4A (residues 1–359) in Escherichia coli BL21(DE3) cells; His6 (N); made in house; host or cells: Escherichia coli BL21(DE3); conditions: WT KDM4A 20.5 μM; inhibitor 100 μM; 2OG 2 mM; spectra after 35 min; pH 7.5
Experimental: as §1, §2, §3, §4, §5, §6, §7, §8, §9, §10, §11, §12

[11] = molecular target: T2, WT KDM4A; assay: 1H CPMG NMR binding assay, WT KDM4A; parameters: two recombinant variants of KDM4A (residues 1–359) in Escherichia coli BL21(DE3) cells; His6 (N); made in house; host or cells: Escherichia coli BL21(DE3); conditions: protein titrated into 40 µM JIB-04, 100 µM Fe(II), 50 mM ammonium formate pH 7.5, 10 % D2O, 600 MHz CPMG, quadratic fit, read-out: K D (JIB-04), provisional
Experimental: as §1, §13, §10, §11, §12, §14, §15, §16, §17, §18

effect of peptide on succinate formation rate [1]: markedly increased
effect of peptide on succinate formation rate ([2]; WT KDM4A 20.5 μM, 2OG 2 mM, pH 7.5): markedly increased
Compound: AR[Lys(Me3)]STGGK [histone H3 eight‐residue fragment peptide containing N ϵ‐trimethyllysine at position 9 (also called H3K9me3)]
stimulation of succinate formation, WT versus K241A ([2]; WT compared with K241A): Stimulation of succinate formation was greater for WT than for K241A KDM4A; also recorded: Succinate formation is stimulated by H3K9me3 peptide, but more readily with WT KDM4A

initial succinate formation rate ([3]; K241A 20.5 μM, 2OG 2 mM, ascorbate 1 mM, Fe(II) 100 μM, 50 mM ammonium formate pH 7.5, no peptide, 1H NMR 700 MHz, 1.5 min intervals over 30 min): 1.55 µM/min
succinate formation rates, WT versus K241A ([3]; in the absence of peptide, WT and K241A KDM4A compared): near identical
initial succinate formation rate [5]: 1.35 µM/min
Compound: O=C(O)CCC(=O)C(=O)O [2OG, 2‐oxoglutarate]
K M (2OG) [4]: 26 ± 7 µM

Compound: TPVKKKAR[Lys(Me3)]SAGAAK [H1.4K26 peptide]
demethylation of histone peptide [6]: low‐level demethylation

Compound: Clc1ccc(N/N=C(\c2ccccc2)c2ccccn2)nc1 [JIB‐04]
inhibition of uncoupled 2OG turnover [7]: inhibition was more pronounced
binding to K241A versus WT KDM4A [8]: preferential binding of JIB‐04 to the K241A variant over the WT enzyme; also recorded: binding to K241A appears stronger
binding to K241A versus WT KDM4A ([8]; listed as JIB-04): Binding appears stronger to the K241 variant than KDM4A WT
Kd ([8]; K241A KDM4A, protein titrated into 40 µM JIB-04, 100 µM Fe(II), 50 mM ammonium formate pH 7.5, 10 % D2O, 600 MHz CPMG, quadratic fit, read-out: K D (JIB-04), provisional): 7 ± 2 µM
mode of inhibition [9]: mixed‐mode inhibition
inhibition of uncoupled 2OG turnover [10]: inhibition was more pronounced
Kd [11]: 22 ± 5 µM

inhibition of uncoupled 2OG turnover [7]: inhibited
inhibition of uncoupled 2OG turnover [10]: inhibited
Compound: O=C(O)CNC(=O)C(=O)O [N‐oxalylglycine]
